Assay results taken from PMC12095040, “GRK5 is required for adipocyte differentiation through ERK activation” (International Journal of Obesity (2005), 2024).

Biological target: GRK5 (Homo sapiens, UniProt P34947)
Assay: ADP-Glo luminescent kinase assay, casein substrate, […] ATP
Type: biochemical

Sequence of GRK5 (P34947 whole entry): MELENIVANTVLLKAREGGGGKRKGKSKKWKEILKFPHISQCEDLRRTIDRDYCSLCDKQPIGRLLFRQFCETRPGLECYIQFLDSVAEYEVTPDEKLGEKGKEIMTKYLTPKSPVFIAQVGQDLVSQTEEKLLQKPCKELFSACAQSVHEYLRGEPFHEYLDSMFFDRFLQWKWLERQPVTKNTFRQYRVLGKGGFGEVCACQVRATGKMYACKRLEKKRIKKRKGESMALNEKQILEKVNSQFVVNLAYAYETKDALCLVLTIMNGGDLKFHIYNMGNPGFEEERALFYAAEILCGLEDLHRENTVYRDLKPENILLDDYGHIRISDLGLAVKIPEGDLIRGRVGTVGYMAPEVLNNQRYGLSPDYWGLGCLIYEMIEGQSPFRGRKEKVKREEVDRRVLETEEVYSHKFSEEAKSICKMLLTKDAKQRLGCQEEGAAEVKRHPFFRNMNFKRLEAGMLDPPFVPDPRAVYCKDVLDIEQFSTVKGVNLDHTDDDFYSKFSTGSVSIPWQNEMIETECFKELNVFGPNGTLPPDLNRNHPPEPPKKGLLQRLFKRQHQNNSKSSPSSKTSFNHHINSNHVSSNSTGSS

IC50: 49.7 µM
SMILES: COc1cc(Nc2cc3c(cn2)nc(-c2ccco2)n3C)cc(OC)c1OC [GRK5-IN-2]
